In patent publication US8609836B2, “4-aryl-2-anilino-pyrimidines” (Janssen Pharmaceutica NV, priority 2008, dated 2013):

How the values were obtained:
CDK4/CyclinD1 (h) = CDK4/CyclinD1 (h) (Homo sapiens, UniProt P11802); assay: CDK4/CyclinD1 human kinase inhibition, SPA with GST-pRb substrate; format: biochemical; settings: read-out: CDK4 pIC50 (converted)
Procedure, shortened: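 Human CDK4/CyclinD1 (2.5 μg/ml) was incubated with 40 μg/ml GST-pRb and 2 nM [γ-33P]ATP in 50 mM Hepes pH 7.5, 8 mM NaF, 20 mM MgCl2, 1 mM DTT for 60 min at room temperature. EDTA stop with glutathione SPA beads; phosphorylation read by scintillation counting.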

A2780 = assay: Cellular proliferation assay (Alamar blue), A2780; format: cell-based; settings: Homo sapiens, 10% FCS, 72 hours with compound, Alamar blue 24 h, read-out: A2780 (cellular proliferation assay, Table 4) (converted)
Procedure, shortened: (§1)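 Proliferation in 10% FCS over a 72 h compound treatment, read as viable cell number by Alamar blue fluorescence and calculated against untreated control cells. Dye time varied by line: 6 h U87-MG, 4 h HCT-116, 24 h A2780 and MDA-MB-231.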

PLK2 (h) = PLK2 (h) (Homo sapiens, UniProt Q9NYY3); assay: PLK2 human kinase inhibition, SPA; format: biochemical; settings: read-out: PLK2 pIC50 (converted)
Procedure, shortened: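 SPA read on Leadseeker: PLK2 (30 μg/ml) with 2 μM biotinylated peptide, 0.1 μM ATP plus 2 nM [γ-33P]ATP in 50 mM Hepes pH 8.0, 2 mM MnCl2, 1 mM DTT. Reaction ran 20 min at room temperature, then EDTA stop and streptavidin PVT beads.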

U87-MG = assay: Cellular proliferation assay (Alamar blue), U87-MG; format: cell-based; settings: Homo sapiens, U-87 MG; 10% FCS; 72 hours with compound; Alamar blue 6 h; read-out: U87-MG (cellular proliferation assay, Table 4) (converted)
Procedure, shortened: as §1

AuroraB (h) = AuroraB (h) (Homo sapiens, UniProt Q96GD4); assay: Aurora-B human kinase inhibition, SPA; format: biochemical; settings: read-out: AuroraB pIC50 (converted)
Procedure, shortened: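 SPA with biotinylated peptide (3 μM) in 60 mM Hepes pH 7.5, Mg/Mn 3 mM each, 0.5 μM ATP plus [γ-33P]ATP, AuroraB at 0.5 μg/ml. The reaction runs 60 min at room temperature and is stopped with EDTA and streptavidin PVT beads. 33P-substrate is read by scintillation imaging.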

PLK3 (h) = PLK3 (h) (Homo sapiens, UniProt Q9H4B4); assay: PLK3 human kinase inhibition, SPA; format: biochemical; settings: read-out: PLK3 pIC50 (converted)
Procedure, shortened: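 SPA: PLK3 (h) at 30 μg/ml with 2 μM biotinylated peptide, 0.1 μM ATP plus 2 nM [γ-33P]ATP in 50 mM Hepes pH 8.0, 2 mM MnCl2 and 1 mM DTT. Incubated 20 min at room temperature, then stopped with EDTA and streptavidin PVT beads. Scintillation imaged on Leadseeker.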

H1299 = assay: Cellular proliferation assay (Alamar blue), H1299; format: cell-based; settings: Homo sapiens, NCI-H1299; 10% FCS; 72 hours with compound; Alamar blue 4 h
Procedure, shortened: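 This proliferation assay on NCI-H1299 cells used an initial 24-hour compound-free incubation after seeding, followed by 72 hours of compound treatment with 10% FCS serum at 37° C. and 5% (v/v) CO2. Viable cells were quantified by a 4 h Alamar blue incubation and fluorescent plate reading at 544 nm/590 nm, and effects were expressed relative to control cells.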

HCT-116 = assay: Cellular proliferation assay (Alamar blue), HCT-116; format: cell-based; settings: Homo sapiens, 10% FCS, 72 hours with compound, Alamar blue 4 h
Procedure, shortened: as §1

CDK1/CyclinB (h) = CDK1/CyclinB (h) (Homo sapiens, UniProt P06493); assay: CDK1/CyclinB human kinase inhibition, Invitrogen's FRET assay (Z'lyte); format: biochemical; settings: read-out: CDK1 pIC50 (converted)
Procedure, shortened: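 Z'lyte FRET assay: human CDK1/CyclinB (0.2 μg/ml) with 2 μM Ser/Thr peptide 12 and 10 μM ATP in 50 mM Hepes pH 7.5, MgCl2, EGTA, Brij-35, 60 min at room temperature. Protease development 60 min, then emission ratio 460/538 nm read with excitation at 390 nm.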

Sequence of CDK1/CyclinB (h) (P06493 whole entry): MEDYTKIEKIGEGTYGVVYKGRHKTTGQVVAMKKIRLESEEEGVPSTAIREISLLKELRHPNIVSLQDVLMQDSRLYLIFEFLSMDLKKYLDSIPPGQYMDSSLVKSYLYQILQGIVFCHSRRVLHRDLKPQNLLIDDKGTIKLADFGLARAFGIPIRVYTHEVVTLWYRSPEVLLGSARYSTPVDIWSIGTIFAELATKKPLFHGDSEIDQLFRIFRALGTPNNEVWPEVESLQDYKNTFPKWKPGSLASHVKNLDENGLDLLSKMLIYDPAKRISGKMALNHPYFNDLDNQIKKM
Sequence of CDK1/CyclinB (h) (P14635 whole entry partner): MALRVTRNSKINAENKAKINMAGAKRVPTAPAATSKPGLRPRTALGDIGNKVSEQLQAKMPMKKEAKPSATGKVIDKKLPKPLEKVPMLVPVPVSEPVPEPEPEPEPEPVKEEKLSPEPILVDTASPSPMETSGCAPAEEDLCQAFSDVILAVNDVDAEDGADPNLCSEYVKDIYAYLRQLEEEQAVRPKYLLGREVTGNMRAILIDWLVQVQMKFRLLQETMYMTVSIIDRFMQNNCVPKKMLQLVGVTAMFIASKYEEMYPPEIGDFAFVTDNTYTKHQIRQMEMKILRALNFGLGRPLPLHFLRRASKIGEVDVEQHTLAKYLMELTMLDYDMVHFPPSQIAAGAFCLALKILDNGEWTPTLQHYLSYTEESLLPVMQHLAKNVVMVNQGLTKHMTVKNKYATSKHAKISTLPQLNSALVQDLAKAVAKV
Sequence of PLK3 (h) (Q9H4B4 whole entry): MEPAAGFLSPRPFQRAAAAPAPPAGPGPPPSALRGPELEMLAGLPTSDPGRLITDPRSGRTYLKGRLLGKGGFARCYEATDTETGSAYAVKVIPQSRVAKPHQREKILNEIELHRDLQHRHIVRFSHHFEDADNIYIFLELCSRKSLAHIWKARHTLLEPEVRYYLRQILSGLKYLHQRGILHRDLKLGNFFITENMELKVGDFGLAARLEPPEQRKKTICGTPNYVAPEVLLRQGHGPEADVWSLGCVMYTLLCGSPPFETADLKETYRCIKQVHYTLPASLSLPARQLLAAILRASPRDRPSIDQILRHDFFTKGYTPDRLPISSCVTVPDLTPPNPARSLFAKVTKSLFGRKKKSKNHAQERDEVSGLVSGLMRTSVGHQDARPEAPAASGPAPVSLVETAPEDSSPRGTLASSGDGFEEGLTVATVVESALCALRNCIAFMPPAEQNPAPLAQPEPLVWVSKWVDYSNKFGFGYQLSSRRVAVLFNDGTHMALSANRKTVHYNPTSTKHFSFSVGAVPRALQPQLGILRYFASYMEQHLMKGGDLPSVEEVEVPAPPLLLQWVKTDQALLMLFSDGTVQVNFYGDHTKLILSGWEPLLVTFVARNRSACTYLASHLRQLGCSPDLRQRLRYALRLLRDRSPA
Sequence of AuroraB (h) (Q96GD4 whole entry): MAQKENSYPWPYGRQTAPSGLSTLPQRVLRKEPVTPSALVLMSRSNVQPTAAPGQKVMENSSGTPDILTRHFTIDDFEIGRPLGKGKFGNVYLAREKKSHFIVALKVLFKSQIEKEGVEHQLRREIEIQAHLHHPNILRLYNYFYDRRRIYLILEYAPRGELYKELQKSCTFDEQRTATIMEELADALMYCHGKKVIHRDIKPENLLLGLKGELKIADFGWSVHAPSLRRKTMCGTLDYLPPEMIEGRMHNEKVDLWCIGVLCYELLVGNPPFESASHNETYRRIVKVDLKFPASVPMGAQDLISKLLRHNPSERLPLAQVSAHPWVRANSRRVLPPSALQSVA
Sequence of PLK2 (h) (Q9NYY3 whole entry): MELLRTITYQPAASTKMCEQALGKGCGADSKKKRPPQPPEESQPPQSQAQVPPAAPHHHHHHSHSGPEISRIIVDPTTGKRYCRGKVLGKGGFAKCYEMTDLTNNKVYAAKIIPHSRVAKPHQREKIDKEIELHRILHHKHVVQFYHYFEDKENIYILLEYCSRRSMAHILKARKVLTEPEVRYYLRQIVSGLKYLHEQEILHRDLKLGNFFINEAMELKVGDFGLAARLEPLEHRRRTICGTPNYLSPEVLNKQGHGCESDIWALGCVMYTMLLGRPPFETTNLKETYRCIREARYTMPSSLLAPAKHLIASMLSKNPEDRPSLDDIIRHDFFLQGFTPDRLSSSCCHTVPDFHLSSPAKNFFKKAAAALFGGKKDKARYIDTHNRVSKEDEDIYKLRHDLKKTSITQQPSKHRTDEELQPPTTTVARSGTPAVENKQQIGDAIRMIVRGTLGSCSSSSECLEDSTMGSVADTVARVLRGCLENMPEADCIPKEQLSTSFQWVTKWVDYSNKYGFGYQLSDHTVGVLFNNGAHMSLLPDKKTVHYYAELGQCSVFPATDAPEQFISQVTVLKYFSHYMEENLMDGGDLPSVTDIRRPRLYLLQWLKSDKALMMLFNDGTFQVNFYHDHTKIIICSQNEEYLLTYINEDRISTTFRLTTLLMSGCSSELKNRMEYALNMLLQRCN
Sequence of CDK4/CyclinD1 (h) (P11802 whole entry): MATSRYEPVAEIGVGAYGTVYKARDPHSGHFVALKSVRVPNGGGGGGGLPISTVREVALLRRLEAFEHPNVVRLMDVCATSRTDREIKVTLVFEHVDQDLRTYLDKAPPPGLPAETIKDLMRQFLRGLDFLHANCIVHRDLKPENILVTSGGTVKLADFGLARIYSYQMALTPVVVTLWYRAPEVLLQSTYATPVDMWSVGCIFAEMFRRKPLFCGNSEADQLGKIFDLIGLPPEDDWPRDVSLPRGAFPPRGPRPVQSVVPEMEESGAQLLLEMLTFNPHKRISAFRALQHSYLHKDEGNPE
Sequence of CDK4/CyclinD1 (h) (P24385 whole entry partner): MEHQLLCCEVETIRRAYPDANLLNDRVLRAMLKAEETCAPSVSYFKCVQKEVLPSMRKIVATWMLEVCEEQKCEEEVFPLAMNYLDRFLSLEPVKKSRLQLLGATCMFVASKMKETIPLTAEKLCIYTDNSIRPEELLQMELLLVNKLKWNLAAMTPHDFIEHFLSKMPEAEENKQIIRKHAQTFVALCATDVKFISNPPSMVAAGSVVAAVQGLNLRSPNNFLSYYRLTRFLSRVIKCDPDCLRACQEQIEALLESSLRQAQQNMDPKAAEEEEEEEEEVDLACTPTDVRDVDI

| IC50 (CDK4/CyclinD1 (h)) [µM] | IC50 (A2780) [µM] | IC50 (PLK2 (h)) [µM] | IC50 (U87-MG) [µM] | IC50 (AuroraB (h)) [µM] | IC50 (PLK3 (h)) [µM] | IC50 (H1299) [µM] | IC50 (HCT-116) [µM] | IC50 (CDK1/CyclinB (h)) [µM] | SMILES |
| --- | --- | --- | --- | --- | --- | --- | --- | --- | --- |
| > 10 | > 10 | > 10 | > 10 | > 10 | > 10 | > 10 | > 10 | > 10 | O=C1NCCCc2cc(ccn2)-c2ccnc(n2)Nc2ccc(N3CCOCC3)c(c2)CN2CCCC12 (stereo not drawn) [Compound 48] |
| > 10 | 7.59 | > 10 | 2.57 | 6.31 | > 10 | > 10 | 1.58 | > 10 | CN1CCNC(=O)C2CCN(CC2)Cc2cc(Br)cc(c2)Nc2nccc(n2)-c2ccc(cc2)C1 [Compound 60] |
| 7.41 | 6.31 | > 10 | 5.62 | 8.32 | > 10 | > 10 | 7.94 | > 10 | CC(C)Nc1cc2cc(c1)Nc1nccc(n1)-c1ccc(cc1)CN(C)CCNC(=O)C1CCN(CC1)C2 [Compound 61] |
| > 10 | > 10 | > 10 | 7.59 | > 10 | > 10 | > 10 | 8.13 | > 10 | CN1CCNC(=O)C2CCN(CC2)Cc2cc(cc(N3CCOCC3)c2)Nc2nccc(n2)-c2ccc(cc2)C1 [Compound 68] |
| > 10 | > 10 | > 10 | 6.17 | > 10 | > 10 | > 10 | 3.39 | > 10 | CN1CCCNC(=O)C2CCN(CC2)Cc2cc(cc(N3CCOCC3)c2)Nc2nccc(n2)-c2ccc(cc2)C1 [Compound 72] |
| > 10 | > 10 | > 10 | 7.08 | > 10 | > 10 | > 10 | > 10 | > 10 | CN1CCCNC(=O)C2CCN(CC2)Cc2cccc(c2)Nc2nccc(n2)-c2ccc(cc2)C1 [Compound 78] |
| > 10 | > 10 | > 10 | > 10 | > 10 | > 10 | > 10 | > 10 | > 10 | CN1CCNC(=O)C2CCN(CC2)Cc2cccc(c2)Nc2nccc(n2)-c2ccc(cc2)C1 [Compound 82] |
| 7.24 | > 10 | > 10 | 9.33 | 7.08 | > 10 | > 10 | > 10 | > 10 | O=C1NCCNc2cc(ccn2)-c2ccnc(n2)Nc2ccc(N3CCOCC3)c(c2)CN2CCC1CC2 [Compound 84] |
| 1.26 | 8.71 | > 10 | 6.17 | > 10 | > 10 | > 10 | 3.8 | 7.08 | C[C@H]1NCc2cc(ccc2N2CCOCC2)Nc2nccc(n2)-c2cccc(c2)OCCCNC1=O [Compound 87] |
| 1.41 | 3.39 | > 10 | 3.55 | 6.46 | > 10 | 8.13 | 1.62 | 4.79 | C[C@@H]1NCc2cc(ccc2N2CCOCC2)Nc2nccc(n2)-c2cccc(c2)OCCCNC1=O [Compound 88] |
| 3.63 | 6.76 | > 10 | > 10 | > 10 | > 10 | > 10 | 4.37 | > 10 | O=C1NCCCOc2cccc(c2)-c2ccnc(n2)Nc2ccc(N3CCOCC3)c(c2)CN[C@H]1CO [Compound 89] |
| > 10 | > 10 | > 10 | > 10 | > 10 | > 10 | > 10 | 6.17 | > 10 | O=C1NCCCOc2cccc(c2)-c2ccnc(n2)Nc2ccc(N3CCOCC3)c(c2)CN[C@H]1Cc1ccccc1 [Compound 91] |
| 0.891 | 0.525 | > 10 | 0.178 | > 10 | > 10 | 0.832 | 0.309 | 1.02 | O=C1NCCCOc2ccc(cc2)-c2ccnc(n2)Nc2ccc(N3CCOCC3)c(c2)CN2CCC1CC2 [Compound 92] |
| > 10 | 6.46 | > 10 | 4.17 | > 10 | > 10 | > 10 | 5.37 | > 10 | O=C1NCCCOc2cccc(c2)-c2ccnc(n2)Nc2ccc(N3CCOCC3)c(c2)CN2CCC[C@@H]12 [Compound 96] |

| SMILES | IC50 (CDK4/CyclinD1 (h)) [µM] | IC50 (A2780) [µM] | IC50 (PLK2 (h)) [µM] | IC50 (U87-MG) [µM] | IC50 (AuroraB (h)) [µM] | IC50 (PLK3 (h)) [µM] | IC50 (H1299) [µM] | IC50 (HCT-116) [µM] | IC50 (CDK1/CyclinB (h)) [µM] |
| --- | --- | --- | --- | --- | --- | --- | --- | --- | --- |
| COc1ccc2cc1CN(C)CCCNC(=O)C1CCN(CC1)Cc1cc(cc(NC(C)C)c1)Nc1nccc-2n1 [Compound 70] | > 10 | > 10 | > 10 | 9.12 | 6.03 | > 10 | > 10 | > 10 | > 10 |
| COc1ccc2cc1CN(C)CCNC(=O)C1CCN(CC1)Cc1cc(cc(NC(C)C)c1)Nc1nccc-2n1 [Compound 75] | > 10 | > 10 | > 10 | 5.13 | > 10 | > 10 | > 10 | 7.24 | > 10 |
| COc1ccc2cc1CN(C)CCCNC(=O)C1CCN(CC1)Cc1cc(Br)cc(c1)Nc1nccc-2n1 [Compound 76] | > 10 | > 10 | > 10 | 7.24 | 5.5 | > 10 | > 10 | > 10 | > 10 |
| COc1ccc2cc1CN(C)CCNC(=O)C1CCN(CC1)Cc1cc(cc(N3CCOCC3)c1)Nc1nccc-2n1 [Compound 77] | > 10 | > 10 | > 10 | > 10 | > 10 | > 10 | > 10 | > 10 | > 10 |
| COc1ccc2cc1CN(C)CCCNC(=O)C1CCN(CC1)Cc1cc(cc(N3CCOCC3)c1)Nc1nccc-2n1 [Compound 80] | > 10 | > 10 | > 10 | > 10 | > 10 | > 10 | > 10 | > 10 | > 10 |
| COc1ccc2cc1CN(C)CCCNC(=O)C1CCN(CC1)Cc1cccc(c1)Nc1nccc-2n1 [Compound 81] | > 10 | > 10 | > 10 | > 10 | > 10 | > 10 | > 10 | > 10 | > 10 |
| COc1ccc2cc1CN(C)CCNC(=O)C1CCN(CC1)Cc1cccc(c1)Nc1nccc-2n1 [Compound 83] | > 10 | > 10 | > 10 | > 10 | > 10 | > 10 | > 10 | > 10 | > 10 |
| C[C@H]1NCc2cc(ccc2N2CCOCC2)Nc2nccc(n2)-c2ccc(cc2)OCCCNC1=O [Compound 86] | 0.49 | > 10 | > 10 | > 10 | 10.5 | > 10 | > 10 | > 10 | > 10 |
